# Data reported in DBAASP.
# What was measured:
# Assay in all cases: ≥ marks a high value that may be exact or a test limit, other limits are often not marked, values filed in µg/mL are converted to µM
# Pseudomonas aeruginosa = system: Pseudomonas aeruginosa
# Enterococcus gallinarum = system: Enterococcus gallinarum
# Acinetobacter baumannii = system: Acinetobacter baumannii
# Raoultella terrigena = system: Raoultella terrigena
# Enterococcus faecalis = system: Enterococcus faecalis
# [1] = system: Fusarium oxysporum KCTC 6084
# [2] = system: Escherichia coli KCTC 1682
# [3] = system: Candida albicans KCTC 7121
# [4] = system: Staphylococcus aureus KCTC 1621
# [5] = system: Bacillus subtilis KCTC 3068
# [6] = system: Streptococcus pyogenes KCTC 3096
# [7] = system: Salmonella typhimurium KCTC 1926
# [8] = system: Aspergillus flavus KCTC 7375
# [9] = system: Pseudomonas aeruginosa KCTC 1637
# [10] = system: Trichosporon beigelii KCTC 7251
# [11] = system: Serratia marcescens KCTC 1299
# Staphylococcus capitis 1 = system: Staphylococcus capitis 1
# Bacillus megaterium Bm11 = system: Bacillus megaterium Bm11
# [12] = system: Staphylococcus aureus Cowan 1
# [13] = system: Candida albicans ATCC 10231
# [14] = system: Escherichia coli ATCC 25922
# [15] = system: Yersinia pseudotuberculosis YPIII
# [16] = system: Escherichia coli ATCC 8739
# [17] = system: Bacillus subtilis ATCC 9372
# [18] = system: Pseudomonas aeruginosa ATCC 9027
# [19] = system: Staphylococcus aureus ATCC 6538
# [20] = system: Proteus vulgaris NCTC 4635
# [21] = system: Candida albicans ATCC 90028
# [22] = system: Klebsiella pneumoniae ATCC 700603
# [23] = system: Escherichia coli ATCC 25726
# [24] = system: Staphylococcus epidermidis T6/19
# [25] = system: Stenotrophomonas maltophilia B32/1
# [26] = system: Staphylococcus aureus 127/08
# [27] = system: Staphylococcus epidermidis RP62A/1
# [28] = system: Enterococcus faecalis ATCC 29212
# [29] = system: Staphylococcus aureus 145/08
# [30] = system: Stenotrophomonas maltophilia B5/5
# [31] = system: Staphylococcus aureus ATCC 25923
# [32] = system: Staphylococcus epidermidis RP62A
# [33] = system: Acinetobacter baumannii NM8
# [34] = system: Acinetobacter baumannii NM35
# [35] = system: Pseudomonas aeruginosa ATCC 27853
# [36] = system: Acinetobacter baumannii NM124
# [37] = system: Stenotrophomonas maltophilia B32/4
smiles,measurement,setting,value
CSCC[C@H](NC(=O)[C@H](C)NC(C)=O)C(=O)N[C@H](C(=O)N[C@@H](CO)C(=O)N[C@@H](CO)C(=O)O)C(C)C [AMVSS],MIC,Pseudomonas aeruginosa,23.1 µM
same,MIC,Enterococcus gallinarum,23.1 µM
same,MIC,Acinetobacter baumannii,23.1 µM
same,MIC,Raoultella terrigena,23.1 µM
same,MIC,Enterococcus faecalis,≥ 46.2 µM
CC[C@H](C)[C@H](NC(=O)[C@@H]1CCCN1C(=O)[C@H](CCCCN)NC(=O)[C@H](Cc1ccccc1)NC(=O)[C@H](CC(C)C)NC(=O)[C@H](Cc1cnc[nH]1)NC(=O)[C@H](CC(C)C)NC(=O)[C@H](C)NC(=O)[C@H](CCCCN)NC(=O)[C@H](CCCCN)NC(=O)[C@@H](N)Cc1ccccc1)C(=O)N[C@@H](CCCCN)C(=O)N[C@@H](CCCCN)C(=O)N[C@@H](Cc1ccccc1)C(=O)N[C@@H](CC(C)C)C(=O)N[C@@H](CCCCN)C(=O)N[C@@H](Cc1c[nH]c2ccccc12)C(=O)N[C@@H](CCCCN)C(N)=O [FKKALHLFKPIKKFLKWK],MIC,[1],≥ 50 µM
same,MIC,[2],6.25 µM
same,MIC,[3],≥ 50 µM
same,MIC,[4],1.56 µM
same,MIC,[5],0.78 µM
same,MIC,[6],6.25 µM
same,MIC,[7],3.13 µM
same,MIC,[8],≥ 50 µM
same,MIC,[9],1.56 µM
same,MIC,[10],25 µM
same,MIC,[11],6.25 µM
CC[C@H](C)[C@H](NC(=O)CNC(=O)[C@H](CO)NC(=O)[C@H](C)NC(=O)[C@@H](NC(=O)[C@H](CCCN=C(N)N)NC(=O)CNC(=O)[C@@H](NC(=O)[C@H](CC(C)C)NC(=O)[C@@H]1CCCN1C(=O)[C@H](CC(C)C)NC(=O)[C@@H](N)Cc1ccccc1)[C@@H](C)CC)C(C)C)C(=O)N[C@@H](CC(C)C)C(N)=O [FLPLIGRVASGIL],MIC,Staphylococcus capitis 1,≥ 40 µM
same,MIC,Bacillus megaterium Bm11,≥ 40 µM
same,MIC,[12],≥ 40 µM
same,MIC,[13],> 40 µM
same,MIC,[14],> 40 µM
same,MIC,[15],≥ 40 µM
CC[C@H](C)[C@H](NC(=O)[C@@H](NC(=O)[C@H](CO)NC(=O)[C@H](C)NC(=O)[C@@H](NC(=O)[C@H](CCCCN)NC(=O)[C@H](CCCCN)NC(=O)[C@@H](NC(=O)[C@@H](NC(=O)[C@H](C)NC(=O)[C@H](Cc1ccccc1)NC(=O)[C@H](CC(C)C)NC(=O)CN)C(C)C)[C@@H](C)CC)C(C)C)C(C)C)C(=O)NCC(=O)O [GLFAVIKKVASVIG],MIC,[16],≥ 45.7 µM
same,MIC,[17],5.71 µM
same,MIC,[18],183 µM
same,MIC,[19],22.8 µM
same,MIC,[20],≥ 183 µM
CC[C@H](C)[C@H](N)C(=O)N[C@@H](CCCCN)C(=O)N[C@H](C(=O)N1CCC[C@H]1C(=O)N[C@@H](CO)C(=O)N[C@@H](Cc1ccccc1)C(=O)N[C@@H](Cc1ccccc1)C(=O)N[C@@H](CCCN=C(N)N)C(=O)N[C@@H](CC(N)=O)C(=O)N[C@H](C(=O)N[C@@H](CC(C)C)C(=O)N[C@@H](CCCCN)C(=O)N[C@@H](CCCCN)C(=O)N[C@H](C(=O)NCC(=O)N[C@@H](CCCCN)C(=O)N[C@@H](CCC(=O)O)C(=O)N[C@@H](C)C(=O)N[C@H](C(=O)N[C@@H](CO)C(=O)N[C@@H](CC(C)C)C(=O)N[C@H](C(=O)N[C@@H](C)C(=O)NCC(=O)N[C@@H](C)C(=O)N[C@@H](CC(C)C)C(=O)N[C@@H](CCCCN)C(=O)N[C@@H](CCC(N)=O)C(=O)N[C@@H](CO)C(=O)O)[C@@H](C)CC)C(C)C)C(C)C)[C@@H](C)CC)[C@@H](C)CC [IKIPSFFRNILKKVGKEAVSLIAGALKQS],MIC,[21],≥ 80 µM
same,MIC,[22],20 µM
same,MIC,[23],10 µM
same,MIC,[24],2.5 µM
same,MIC,[25],5 µM
same,MIC,[26],5 µM
same,MIC,[27],1.25 µM
same,MIC,[28],10 µM
same,MIC,[29],10 µM
same,MIC,[30],10 µM
same,MIC,[31],7.07 µM
same,MIC,[32],2.5 µM
same,MIC,[33],10 µM
same,MIC,[34],5 µM
same,MIC,[35],20 µM
CC[C@H](C)[C@@H]1NC(=O)[C@H](CCCCN)NC(=O)[C@@H](NC(=O)[C@H](C)NC(=O)[C@@H](NC(=O)[C@H](CC(C)C)NC(=O)[C@H](CC(=O)O)NC(=O)[C@@H](NC(=O)CNC(=O)[C@H](CC(C)C)NC(=O)[C@H](CCCCN)NC(=O)[C@H](C)NC(=O)[C@H](CC(C)C)NC(=O)[C@H](CC(=O)O)NC(=O)[C@H](CCCCN)NC(=O)CNC(=O)[C@H](CC(C)C)NC(=O)CNC(=O)[C@H](CCCCN)NC(=O)[C@H](CO)NC(=O)[C@H](C)NC(=O)[C@H](Cc2ccccc2)NC(=O)[C@@H](N)CCCCN)C(C)C)C(C)C)CSSC[C@@H](C(=O)O)NC(=O)[C@H](CCC(N)=O)NC(=O)[C@H](CCCCN)NC(=O)[C@H](CO)NC1=O [KFASKGLGKDLAKLGVDLVACKISKQC],MIC,[36],≥ 100 µM
same,MIC,[37],≥ 50 µM
same,MIC,[23],≥ 200 µM
same,MIC,[25],≥ 100 µM
same,MIC,[26],≥ 200 µM
same,MIC,[31],> 200 µM
same,MIC,[33],≥ 200 µM
